Where a name gives a salt, the structure may show the parent alone.
Columns and labels:
[1] = system: multiple myeloma cell line U266B1; assay: U266 Cell Viability Assay; format: cell-based, human; details: Homo sapiens, U-266; 48 hr, U266; read-out: 48 hr U266 Viability Celltiter-Glo: Mean EC50
Method in brief: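 Viability was measured by CellTiter-Glo luminescence after 48 h compound exposure at 37° C, 5% CO2. The cells were U266B1 multiple myeloma cells grown in RPMI 1640 plus 10% FBS. Where stereochemistry is not shown, values apply to the stereoisomer mixture.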

[2] = system: full length IL-2 (amino acids 1-153) fused to Gaussia Luciferase; assay: Dox Induced IL2-FL-Gluc Assay; format: cell-based; details: 24 hr, 293FRT/TO; read-out: 24 hr Dox Inducible IL2FLGluc 293FRT/TO: Mean IC50
Method in brief: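 Compounds in DMSO/media with doxycycline were added to cells plated the previous day and incubated at 37° C, 5% CO2. Cells: stable Flp-In 293 T-REx line, Dox-regulated expression of IL-2 (aa 1-153) fused at its C-terminus to Gaussia luciferase.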

[3] = system: full length PD1 (amino acids 1-288) fused to Firefly Luciferase; assay: Dox Induced PD1-FL-Gluc Assay; format: cell-based; details: 24 hr, 293FRT/TO; read-out: 24 hr Dox Inducible PD1FLFluc 293FRT/TO: Mean IC50
Source text: FIp-In 293 T-REx™ cells were transfected with pcDNA™5/FRT/TO plasmid inserted with cDNA encoding Firefly Luciferase fused to the 3′ end of cDNA encoding full length PD1 (amino acids 1-288). Transfected cells were selected for resistance to the selectable markers Hygromycin and Blasticidin to create a stable cell line that contained the PD1-FL/Firefly Luciferase cDNA insert whose expression was regulated under the T-REx™ system. The day before assay, cells were trypsinized and plated in 384-well tissue culture plates. The next day, compound dilutions in DMSO/media containing doxycycline were added to the wells and incubated at 37° C., 5% CO2.
For chemical structures that include one or more stereoisomers, but are illustrated without indicating stereochemistry, the assay data refers to a mixture of stereoisomers.

[4] = In Vitro Microsome Stability Assay (rat); format: in vitro ADME; details: rat, 30 min, NADPH
Method in brief: (§1)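 The value reported is the percentage of parent left after 30 min, calculated from analyte/IS peak-area ratios relative to time zero by LC-MS/MS. Incubations ran at 37° C in 0.1 M potassium phosphate with NADPH and microsomes (stock 20 mg/mL), with compound added from a 0.25 mM DMSO stock. Acetonitrile containing IS stopped the reactions.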

[5] = In Vitro Microsome Stability Assay (mouse); format: in vitro ADME; details: mouse, 30 min, NADPH
Method in brief: as §1

[6] = system: multiple myeloma cell line NCl-H929; assay: H929 Cell Viability Assay; format: cell-based, human; details: Homo sapiens, NCI-H929, 48 h, H929, read-out: 48 hr H929 Viability Celltiter-Glo: Mean EC50
Method in brief: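 Viability was determined by CellTiter-Glo luminescence after a 48 h, 37 °C exposure of NCI-H929 cells to serial compound dilutions in medium containing 10% FBS. Where stereochemistry is not shown, values refer to a mix of stereoisomers.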

[7] = In Vitro Microsome Stability Assay (human); format: in vitro ADME; details: human, 30 min, NADPH
Method in brief: as §1

[8] = system: full length TNFα (amino acids 1-233) fused to Gaussia Luciferase; assay: Dox Induced TNFα-FL-Gluc Assay; format: cell-based; details: 24 hr, 293FRT/TO; read-out: 24 hr Dox Inducible TNFaFLGluc 293FRT/TO: Mean IC50
Method in brief: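 Compounds diluted in DMSO/medium with doxycycline were incubated at 37° C, 5% CO2 with 293 T-REx cells stably carrying a Tet-regulated TNFα(1-233)-Gaussia luciferase construct. Data for structures drawn without stereochemistry refer to stereoisomer mixtures.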

[9] = In Vitro Microsome Stability Assay (monkey); format: in vitro ADME; details: monkey, 30 min, NADPH
Method in brief: as §1

[10] = system: PD1 signal sequence plus 10 amino acids fused to Gaussia Luciferase (PD1-ss+10aa/Gaussia Luciferase); assay: Dox Induced PD1-ss-Gluc Assay; format: cell-based; details: 24 hr, 293FRT/TO; read-out: 24 hr Dox Inducible PD1ssGluc 293FRT/TO: Mean IC50
Method in brief: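 Compound dilutions in DMSO/media containing doxycycline were applied to a stable, inducible 293 T-REx line carrying the luciferase fusion, then incubated at 37 °C, 5% CO2. Where stereochemistry is not drawn, values relate to isomer mixtures.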

| SMILES | EC50 [1] [nM] | IC50 [2] [nM] | IC50 [3] [nM] | Liver Microsome Stability-% Left after 30 min w/ NADPH (%) Rat [4] [%] | Liver Microsome Stability-% Left after 30 min w/ NADPH (%) Mouse [5] [%] | EC50 [6] [nM] | Liver Microsome Stability-% Left after 30 min w/ NADPH (%) Human [7] [%] | IC50 [8] [nM] | Liver Microsome Stability-% Left after 30 min w/ NADPH (%) Monkey [9] [%] | IC50 [10] [nM] |
| --- | --- | --- | --- | --- | --- | --- | --- | --- | --- | --- |
| CN(C)c1ccc(S(=O)(=O)N2CCCN(CC3CCCCC3)CCCN(S(=O)(=O)N3CCC(c4ccccc4)CC3)CC3(CC3)C2)cc1 [A29, 4-{[9-(cyclohexylmethyl)-13-[(4-phenylpiperidin-1-yl)sulfonyl]-5,9,13-triazaspiro[2.11]tetradecan-5-yl]sulfonyl}-N,N-dimethylaniline] | > 25000 | 447 | 591 | 43.3 | 32.4 | > 25000 | 39.6 | > 25000 | 19.5 | 241 |
| C=C1CN(S(=O)(=O)c2ccc(C)cc2)CCCN(CC2CCCCC2)CCCN(S(=O)(=O)c2ccc(OC)cc2)C1 [A3] | > 25000 | – | 638 | 0.37 | 0.09 | 5080 | 0.25 | 11400 | 0.83 | 241 |
| Cc1ccc(S(=O)(=O)N2CCCN(CC3CCCCC3)CCCN(S(=O)(=O)c3ccc(N(C)C)cc3)CCC2)cc1 [A14, 4-((5-(cyclohexylmethyl)-9-tosyl-1,5,9-triazacyclododecan-1-yl)sulfonyl)-N,N-dimethylaniline] | > 25000 | 1160 | 1230 | 1.13 | 5.39 | > 25000 | 0.08 | > 25000 | 1.4 | 640 |
| C=C1CN(S(=O)(=O)c2ccc(N(C)C)cc2)CCCN(CC2CCCCC2)CCCN(S(=O)(=O)N2CCC(c3ccccc3)CC2)C1 [A35, 4-{[9-(cyclohexylmethyl)-3-methylidene-5-[(4-phenylpiperidin-1-yl)sulfonyl]-1,5,9-triazacyclododecan-1-yl]sulfonyl}-N,N-dimethylaniline hydrochloride] | > 25000 | – | 244 | 30 | 20.9 | > 25000 | 24.8 | > 11900 | 13.6 | 83 |
| C=C1CN(S(=O)(=O)c2ccc(N(C)C)cc2)CCCN(CC2CCCCC2)CCCN(S(=O)(=O)N2CCN(c3ccccc3)CC2)C1 [A36, 4-{[9-(cyclohexylmethyl)-3-methylidene-5-[(4-phenylpiperazin-1-yl)sulfonyl]-1,5,9-triazacyclododecan-1-yl]sulfonyl}-N,N-dimethylaniline] | > 25000 | 301 | 319 | 0.94 | 1.85 | > 15400 | 6.69 | > 21800 | 1.54 | 118 |
| CN(C)c1ccc(S(=O)(=O)N2CCCN(CC3CCCCC3)CCCN(S(=O)(=O)N3CCC(c4ccccc4)CC3)C/C(=N/O)C2)cc1 [A75, 9-(cyclohexylmethyl)-1-((4-(dimethylamino)phenyl)sulfonyl)-5-((4-phenylpiperidin-1-yl)sulfonyl)-1,5,9-triazacyclododecan-3-one oxime] | > 25000 | 233 | 256 | 7.54 | 2.75 | 3030 | 3.08 | 3780 | 0.28 | 104 |
| C=C1CN(S(=O)(=O)c2ccc(C)cc2)CCCN(CC2CCCCC2)CCCN(S(=O)(=O)c2ccc(N(C)C)cc2)C1 [A4] | > 25000 | – | 311 | 1.17 | 0.56 | 1220 | 0.25 | 3760 | 1.17 | 93.9 |

Further lines, results first:

| EC50 [1] [nM] | IC50 [2] [nM] | IC50 [3] [nM] | Liver Microsome Stability-% Left after 30 min w/ NADPH (%) Rat [4] [%] | Liver Microsome Stability-% Left after 30 min w/ NADPH (%) Mouse [5] [%] | EC50 [6] [nM] | Liver Microsome Stability-% Left after 30 min w/ NADPH (%) Human [7] [%] | IC50 [8] [nM] | Liver Microsome Stability-% Left after 30 min w/ NADPH (%) Monkey [9] [%] | IC50 [10] [nM] | SMILES |
| --- | --- | --- | --- | --- | --- | --- | --- | --- | --- | --- |
| > 25000 | 1170 | 1400 | 0.12 | 0.21 | > 25000 | 0.18 | > 25000 | 0.18 | 1030 | C=C1CN(S(=O)(=O)c2ccc(C)cc2)CCCN(Cc2ccccc2)CCCN(S(=O)(=O)c2ccc(C)cc2)C1 [A1] |
| > 25000 | > 25000 | > 25000 | 33.9 | 28.6 | > 25000 | 53.1 | > 25000 | 35.7 | > 25000 | C[C@@H]1CN(S(=O)(=O)c2ccc(N(C)C)cc2)CCCN(CC2CCCCC2)CCCN(S(=O)(=O)N2CCC(c3ccccc3)CC2)C1 [A76, 4-{[(3 R)-9-(cyclohexylmethyl)-3-methyl-5-[(4-phenylpiperidin-1-yl)sulfonyl]-1,5,9-triazacyclododecan-1-yl]sulfonyl}-N,N-dimethylaniline] |
| 6540 | 57 | 74.1 | 3.6 | 70.1 | 1010 | 1.32 | 661 | 0.79 | 22.2 | C=C1CN(S(=O)(=O)c2ccc(N(C)C)cc2)CCCN(CC2CCCCC2)CCCN(S(=O)(=O)N2CCc3ccccc3C2)C1 [A50, 4-{[9-(cyclohexylmethyl)-3-methylidene-5-(1,2,3,4-tetrahydroisoquinoline-2-sulfonyl)-1,5,9-triazacyclododecan-1-yl]sulfonyl}-N,N-dimethylaniline] |
| > 25000 | – | 807 | 0.59 | 0.09 | 10100 | 0.04 | > 25000 | 0.09 | 345 | C=C1CN(S(=O)(=O)c2ccc(C)cc2)CCCN(CC2CCCCC2)CCCN(S(=O)(=O)c2ccc(C)cc2)C1 [A2] |
| > 25000 | 395 | 429 | 39.9 | 34.1 | 5630 | 41.3 | > 25000 | 29.2 | – | C=C1CN(S(=O)(=O)c2c(F)cc(N(C)C)cc2F)CCCN(CC2CCCCC2)CCCN(S(=O)(=O)N2CCC(c3ccccc3)CC2)C1 [A86] |

Source: patent US11578055B2, “Triazacyclododecansulfonamide (“TCD”)-based protein secretion inhibitors” (KEZAR LIFE SCIENCES, priority 2018, dated 2023)
